Reference: the NIST ThermoML archive (doi:10.1016/j.jct.2012.10.012)
Where “and” joins values, the source holds several entries; their conditions need not be identical. Equal values may be shown once.

Settings: Crystal, Calculated from knudsen effusion weight loss

O=C1CNC(=O)CN1 [2,5-diketopiperazine]
Settings | vapor or sublimation pressure
419.16 K | 0.000101 kPa and 9.91e-05 kPa and 9.65e-05 kPa
421.11 K | 0.000118 kPa and 0.000119 kPa and 0.000114 kPa
423.15 K | 0.00014 kPa and 0.000137 kPa and 0.000141 kPa
425.16 K | 0.000168 kPa and 0.000156 kPa and 0.000162 kPa
427.1 K | 0.000196 kPa and 0.000188 kPa and 0.000195 kPa
429.14 K | 0.000232 kPa and 0.000226 kPa and 0.000236 kPa
431.17 K | 0.00029 kPa and 0.000257 kPa and 0.000273 kPa
433.11 K | 0.00033 kPa and 0.00032 kPa and 0.000347 kPa
435.15 K | 0.000382 kPa and 0.00038 kPa and 0.00039 kPa
437.19 K | 0.00047 kPa and 0.000459 kPa
439.11 K | 0.000548 kPa and 0.000519 kPa and 0.00052 kPa
441.16 K | 0.000646 kPa and 0.000627 kPa and 0.000626 kPa

CC1NC(=O)C(C)NC1=O (centres undefined) [3,6-dimethyl-2,5-piperazinedione]
Settings | vapor or sublimation pressure
388.13 K | 0.000116 kPa and 0.000126 kPa
390.16 K | 0.000142 kPa and 0.000149 kPa and 0.00014 kPa
392.15 K | 0.000171 kPa and 0.000179 kPa
394.13 K | 0.000212 kPa and 0.000216 kPa
396.14 K | 0.00026 kPa and 0.000247 kPa and 0.000267 kPa
398.15 K | 0.000309 kPa and 0.000298 kPa and 0.000325 kPa
400.13 K | 0.000387 kPa and 0.000371 kPa and 0.000388 kPa
402.13 K | 0.000454 kPa and 0.000436 kPa and 0.000463 kPa
404.15 K | 0.000543 kPa and 0.000563 kPa
406.14 K | 0.000696 kPa and 0.000677 kPa and 0.000693 kPa
408.14 K | 0.000821 kPa and 0.000818 kPa and 0.000785 kPa
410.15 K | 0.000977 kPa and 0.000955 kPa and 0.000927 kPa
